Laboratory results published in patent US4390528A, “Tuftsinyl-tuftsin” (Research Corporation, priority 1981, dated 1983).
Where a SMILES comes first, the peptide text is derived from it. Where no end group is shown, it is not given here.

Key:
[1] = test system: therapeutic action of tuftsin; test: Inhibition of the therapeutic action of tuftsin; conditions: tripeptide formed by degradation of administered tuftsin
Experimental: Thus, if large amounts of tuftsin are administered, for example, parenterally a rather complex series of reactions takes place. One is the desired therapeutically useful reaction, another is the formation of the inhibitory tripeptide and the third is the inhibitory reaction. The rate of the last two reactions is, unfortunately, so high that the administration of higher doses of the therapeutic agent is counterproductive. As more is administered, more of the inhibitory tripeptide is produced and less of the tuftsin is available to fulfill its therapeutic purpose.

L1210 cells = test: Survival of DBA/2 mice injected intraperitoneally with L1210 cells; type: in vivo, mouse; conditions: 25 DBA/2 mice, 20 μg intraperitoneally on days -7, -4 and 0; L1210 cells i.p. on day 0; control animals all dead by day 18
Experimental: In one experiment, 25 DBA/2 mice were injected each with 20 μg of the octapeptide intraperitoneally on days -7, -4 and 0. On the last mentioned day, L1210 cells were also injected intraperitoneally in experimental animals and solvent buffer alone in 25 control mice. The animals were observed daily and deaths recorded. The control animals were all dead by day 18, whereas the treated mice survived 32 days.

[2] = test system: Cloudman S-91 mouse melanoma cells; test: Antineoplastic activity against Cloudman S-91 mouse melanoma cells
[3] = test system: blood polymorphonuclear leucocytes; test: Stimulation of phagocytosis and pinocytosis; type: cell-based, mammals
From the text: It also stimulates pinocytosis to the same extent allowing the cells to obtain nourishment from the surrounding medium.

316 mouse melanoma cells = test: Antineoplastic activity against 316 mouse melanoma cells
[4] = test system: L1210 mouse leukemia cells; test: Antineoplastic activity against L1210 mouse leukemia cells
[5] = test system: blood polymorphonuclear leucocytes; conditions: especially neutrophilic leucocytes, in mammals, known for some time; cited from earlier work

N=C(N)NCCC[C@H](NC(=O)[C@@H]1CCCN1C(=O)[C@@H](N)CCCCN)C(=O)O [lysyl-prolyl-arginine] (H-Lys-Pro-Arg-OH)
effect on the therapeutic action of tuftsin [1]: acts as an inhibitor

TKPRTKPR [Tuftsinyl-tuftsin, L-Threonyl-L-Lysyl-L-Prolyl-L-Arginyl-L-Threonyl-L-Lysyl-L-Prolyl-L-Arginine]
survival of treated mice (L1210 cells): 32 days | antineoplastic activity [2]: manifests antineoplastic activity | stimulation of phagocytosis and pinocytosis [3]: stimulator of phagocytosis and pinocytosis | antineoplastic activity (316 mouse melanoma cells): manifests antineoplastic activity | antineoplastic activity [4]: manifests antineoplastic activity

L-threonyl-L-lysyl-L-propyl-L-arginine [tuftsin]
stimulation of phagocytosis and destruction of bacteria by leucocytes [5]: has the ability to stimulate phagocytosis
